Reference: ChEMBL document CHEMBL5705903, “A DNA Hypomethylation Signature Predicts Antitumor Activity of LSD1 Inhibitors in SCLC” (Cancer Cell, 2015)
Calls of active or inactive are those of the source. The calls are words filed in the database; no cut-off is given here.

Assays:
[1] = Half life in mouse at 5.5 mg/kg, ip by HPLC/MS/MS analysis; type: ADME, organism-based; conditions: in vivo
NCI-H526 [2] = experiment: In vivo inhibition of LSD1 in human NCI-H526 cells xenografted in nude mouse assessed as change in UMODL1 gene expression measured after 24 hrs post single administration by qRT-PCR analysis; type: functional, organism-based; conditions: dose 0.06-135 mg/kg
[3] = Effect on cleaved PARP level in human NCI-H510 cells assessed as relative expression at 10 nM measured after 14 days by Western blot analysis (reference value: 0.01); type: functional, NCI-H510A; conditions: time 14 day
NCI-H146 [4] = experiment: Effect on NCAM gene expression in human NCI-H146 cells at 1 uM measured after 4 days by qRT-PCR analysis; type: functional, cell-based; conditions: time 4.0 day
[5] = Effect on cleaved PARP level in human NCI-H524 cells assessed as fold change at 100 nM measured after 7 days by Western blot analysis (reference value: 1.00); type: functional; conditions: time 7 day
[6] = Cmax in mouse tumor at 5 mg/kg, po by HPLC/MS/MS analysis; type: ADME, organism-based, Neoplasm
NCI-H146 [7] = experiment: Effect on NSE gene expression in human NCI-H146 cells at 1 uM measured after 4 to 7 days by qRT-PCR analysis; type: functional, cell-based; conditions: time 4-7 day
[8] = Effect on cleaved PARP level in human NCI-H526 cells assessed as relative expression at 10 nM measured after 7 days by Western blot analysis (reference value: 0.57); type: functional; conditions: time 7 day
NCI-H526 [9] = experiment: In vivo inhibition of LSD1 in human NCI-H526 cells xenografted in nude mouse assessed as change in TOX3 gene expression measured after 24 hrs post single administration by qRT-PCR analysis; type: functional, organism-based; conditions: dose 0.06-135 mg/kg
COLO-668 = experiment: Effect on SYP gene expression in human COLO-668 cells at 1 uM measured after 4 days by qRT-PCR analysis; type: functional, cell-based; conditions: time 4.0 day
[10] = Dose normalized AUC (0 to last) in mouse blood at 5 mg/kg, po by HPLC/MS/MS analysis; type: ADME, organism-based; conditions: in vivo
NCI-H2171 = experiment: Antitumor activity against human NCI-H2171 cells xenografted in nude mouse assessed as mean tumor volume at […] mg/kg, po administered daily measured twice weekly (reference value: 1553 +/- 339 mm3); type: functional; conditions: 1.25 mg/kg
[11] = Effect on cleaved PARP level in human NCI-H146 cells assessed as relative expression at 1000 nM measured after 7 days by Western blot analysis (reference value: […]); type: functional; conditions: time 7 day
[12] = Oral bioavailability in mouse at 5 mg/kg by HPLC/MS/MS analysis; type: ADME, organism-based; conditions: in vivo
[13] = Antitumor activity against human PDX L44 cells xenografted in mouse assessed as tumor growth inhibition at 1.5 mg/kg administered daily measured for 30 days relative to control; type: functional; conditions: PDX LX44, 720 h, time 30 day, read-out: TGI
NCI-H526 [14] = experiment: In vivo inhibition of LSD1 in human NCI-H526 cells xenografted in nude mouse assessed as change in KIAA1644 gene expression measured after 24 hrs post single administration by qRT-PCR analysis; type: functional, organism-based; conditions: dose 0.06-135 mg/kg
[15] = Effect on cleaved PARP level in human NCI-H1694 cells assessed as relative expression at 100 nM measured after 7 days by Western blot analysis (reference value: 0.25); type: functional; conditions: time 7 day
[16] = Effect on cleaved PARP level in human NCI-H2171 cells assessed as fold change at 100 nM measured after 7 days by Western blot analysis (reference value: 1.00); type: functional; conditions: time 7 day
[17] = Effect on cleaved PARP level in human NCI-H526 cells assessed as fold change at 10 nM measured after 14 days by Western blot analysis (reference value: 1.00); type: functional; conditions: time 14 day
[18] = Effect on cleaved PARP level in human NCI-H524 cells assessed as fold change at 10 nM measured after 10 days by Western blot analysis (reference value: 1.00); type: functional; conditions: time 10 day
NCI-H526 [19] = experiment: In vivo inhibition of LSD1 in human NCI-H526 cells xenografted in nude mouse assessed as change in TOX3 gene expression administrated daily for 5 days by qRT-PCR analysis; type: functional, organism-based; conditions: dose 0.02-135 mg/kg, time 5.0 day
[20] = Antitumor activity against human PDX L36 cells xenografted in mouse assessed as tumor growth inhibition at 1.5 mg/kg administered daily measured for 20 days relative to control; type: functional; conditions: PDX LX36, 480 h, time 20 day, read-out: TGI
NCI-H146 [21] = experiment: Effect on SYP gene expression in human NCI-H146 cells at 1 uM measured after 4 days by qRT-PCR analysis; type: functional, cell-based; conditions: time 4.0 day
[22] = Effect on cleaved PARP level in human NCI-H146 cells assessed as fold change at 1000 nM measured after 7 days by Western blot analysis (reference value: 1.00); type: functional; conditions: time 7 day
[23] = Effect on cleaved PARP level in human NCI-H524 cells assessed as relative expression at 10 nM measured after 10 days by Western blot analysis (reference value: 0.95); type: functional; conditions: time 10 day
NCI-H1417 = experiment: Antitumor activity against human NCI-H1417 cells xenografted in nude mouse assessed as decrease in GRP expression at 1.5 mg/kg administrated daily by qRT-PCR analysis; type: functional, organism-based; conditions: time 1-14 day, TDE = time-dependent effect
[24] = Effect on cleaved PARP level in human NCI-H146 cells assessed as fold change at 100 nM measured after 10 days by Western blot analysis (reference value: 1.00); type: functional; conditions: time 10 day
[25] = Effect on cleaved PARP level in human NCI-H524 cells assessed as fold change at 1000 nM measured after 14 days by Western blot analysis (reference value: 1.00); type: functional; conditions: time 14 day
NCI-H526 [26] = experiment: In vivo inhibition of LSD1 in human NCI-H526 cells xenografted in nude mouse assessed as change in IGFBP2 gene expression administrated daily for 5 days by qRT-PCR analysis; type: functional, organism-based; conditions: dose 0.02-135 mg/kg, time 5.0 day
[27] = biological target: Lysine-specific histone demethylase 1A (Homo sapiens, UniProt O60341)
Description: Binding affinity to LSD1 (unknown origin) using H3K4me2 as substrate assessed as inactivation constant by HRP-coupled amplex red assay

NCI-H526 [28] = experiment: Effect on NCAM gene expression in human NCI-H526 cells at 1 uM measured after 4 days by qRT-PCR analysis; type: functional, cell-based; conditions: time 4.0 day
[29] = Half life in mouse blood at 5 mg/kg, po by HPLC/MS/MS analysis; type: ADME, organism-based
[30] = Effect on cleaved PARP level in human NCI-H889 cells assessed as relative expression at 10 nM measured after 14 days by Western blot analysis (reference value: 0.94); type: functional; conditions: time 14 day
[31] = Effect on cleaved PARP level in human NCI-H524 cells assessed as fold change at 1000 nM measured after 7 days by Western blot analysis (reference value: 1.00); type: functional; conditions: time 7 day
[32] = Effect on cleaved PARP level in human NCI-H2171 cells assessed as fold change at 10 nM measured after 10 days by Western blot analysis (reference value: 1.00); type: functional; conditions: time 10 day
[33] = Toxicity in rat assessed as effect on ECG measured for 28 days; conditions: in vivo, 672 h, time 28 day
[34] = Effect on cleaved PARP level in human NCI-H1417 cells assessed as fold change at 100 nM measured after 14 days by Western blot analysis (reference value: 1.00); type: functional; conditions: time 14 day

SMILES: c1ccc([C@@H]2C[C@H]2NC2CCNCC2)cc1
- half-life [1]: 3.6 h

SMILES: O=C(O)c1ccc(CN2CCC(CN[C@@H]3C[C@H]3c3ccccc3)CC2)cc1 [GSK2879552]
- inhibition (NCI-H526 [2]): Dose-Dependent Effect
- Activity [3]: 0.32
- Activity (NCI-H146 [4]): inactive
- fold change (FC) [5]: 0.95
- Cmax [6]: 355 ng/mL
- Activity (NCI-H146 [7]): inactive
- Activity [8]: 0.48
- inhibition (NCI-H526 [9]): Dose-Dependent Effect
- Activity (COLO-668): inactive
- AUClast/dose [10]: 171 ng·h/mL/mg/kg
- Activity (NCI-H2171): 1055 mm3
- Activity [11]: 2.43
- bioavailability [12]: 59.2%
- inhibition in vivo at 1.5 mg/kg [13]: 69%
- inhibition (NCI-H526 [14]): Dose-Dependent Effect
- Activity [15]: 0.28
- fold change (FC) [16]: 1.71
- fold change (FC) [17]: 0.73
- fold change (FC) [18]: 0.81
- inhibition (NCI-H526 [19]): Dose-Dependent Effect
- inhibition in vivo at 1.5 mg/kg [20]: 19%
- Activity (NCI-H146 [21]): inactive
- fold change (FC) [22]: 1.12
- Activity [23]: 0.77
- Activity (NCI-H1417): Tde
- fold change (FC) [24]: 0.94
- fold change (FC) [25]: 0.77
- inhibition (NCI-H526 [26]): Dose-Dependent Effect
- Kinact [27]: 0.11 min⁻¹
- Activity (NCI-H526 [28]): inactive
- half-life [29]: 1.9 h
- Activity [30]: 1.73
- fold change (FC) [31]: 1.77
- fold change (FC) [32]: 1.33
- Activity [33]: Toxic
- fold change (FC) [34]: 0.83
